Reference: US10253069B2, “Compositions and methods for regulating arterial tone” (University of Virginia Patent Foundation, priority 2012, dated 2019)

Assays:
[1] = tested on: VCCC (human coronary ECs and SMCs); test: Nitric oxide diffusion assay, VCCC; format: cell-based
Protocol: (§1) Anaerobic aqueous NO was generated by bubbling 100% helium into a beaker containing deionized water. Following 30 minutes, 99.5% NO′ gas was bubbled for an additional 40 minutes giving a final saturated concentration of approximately 1.7 mM.
(§2) Both ECs and SMCs were cultured on 12 mm Transwells as described above. After three days of co-culture, media was removed and replaced with 500 μL of Krebs buffer on each side of the Transwells and cells were allowed to equilibrate for 15 minutes. Next, 100 μL of anaerobic aqueous NO was added to the 500 μLs of Kreb's buffer on the EC side of the Transwell. After 5 minutes, 100 μL of Krebs buffer was immediately removed and injected into a Seivers Nitric Oxide Analyzer (NOA). Data was quantified using Origin Pro 6.0 by calculating the area under the peak over time. Differences between samples were expressed as μM change. For experiments on ex vivo samples, TD arteries were cannulated (as described above) in puddle of 100 μL of Krebs buffer created by parafilm. […] Data was quantified using Origin Pro 6.0 by calculating the area under the peak over time. Differences between samples were expressed as μM change.

TD arteries = test: Nitric oxide diffusion assay, ex vivo TD arteries; design: species or system mouse; details: isolated TD arteries
Protocol: as §1, §2

[2] = tested on: thoracodorsal (TD) arteries; test: Vasoreactivity of cannulated, pressurized TD arteries (pressure myograph) after siRNA transfection or PTU/L-NAME treatment; design: species or system mouse; details: for Contraction to 5-HT 50 nM post 15 min, % initial diameter: 15 minutes after stimulation, PTU 50 μM, n = 3; for PE CCRC Emax (% initial diameter): phenylephrine, TD arteries pretreated with PTU (50 μM) and/or L-NAME (100 μM)
Protocol: TD arteries (maximal internal diameter 261.7±4.2 μm) were isolated, cannulated in a pressure myograph (Danish MyoTechnology) and secured with 10.0 nylon sutures as described in^7. The TD arteries were placed in a circulating bath of Krebs-HEPES and perfused with Krebs-HEPES supplemented with 1% BSA. Arteries were maintained in a no flow state and pressurized at 80 mmHg as previously described^1. […] Acetylcholine (1 μM) was added to the bath to verify the integrity of the endothelium. […] At the end of the experiments, the solution was replaced by a calcium-free Krebs supplemented with 2 mM ethylenbis-(oxyethylenenitrolo) tetra-acetic acid (EGTA) and 10 μM sodium nitroprussiate in order to measure the maximal diameter. […] Internal diameters were calculated and results are expressed as a percentage of initial inner diameter (for PE dose responses) or percent dilation (for Ach dose responses). […] The TD arteries were isolated and cannulated as described above. The vessel lumen was perfused with Krebs-HEPES buffer supplemented with 1% BSA to flush out red blood cells and 100 μL of Nucleofector transfection reagent (HCAEC Nucleofector kit, Lonza) containing 10 nM control, Hb α or CytB5R3 siRNAs (see Table below) was perfused into the lumen. Arteries were then removed from the cannula and the ends ligated with 10-0 nylon sutures to maintain the transfection reagent and siRNA in the blood vessel lumen. Ligated arteries were then transferred to a transfection cuvette (Lonza) containing 100 μL Nucleofector transfection reagent and electroporated using the Nucleofector II Device (Lonza) using setting A-034. Transfected TDA were removed from cuvettes, re-cannulated and perfused with RPMI media+1% BSA to remove residual transfection reagent and siRNA. Arteries were cultured for 15-18 hours at 37° C. in RPMI+1% BSA and used for vasoreactivity studies or processed for immunofluorescence microscopy. To eliminate variability of transfection efficiency and vessel viability, one control siRNA vessel and one Hb α/CytBSR3 vessel were transfected daily.

[3] = tested on: human coronary endothelial cells; test: Nitrite measurements from media of coronary endothelial cells; format: cell-based; details: unstimulated cells
Protocol: (§3) Primary coronary endothelial cells (Lonza) were cultured on plastic 6-well dishes as previously described^9. For studies involving basal NO release, endothelial cells were incubated with 5 μmol/L of Scr X or Hb α X for 20 minutes followed by medium collection and nitrite measurements as described below. For bradykinin studies, coronary endothelial cells were grown to confluence followed by serum starvation overnight in a cocktail of Lonza EGM-2 medium supplemented with EGM-2 bullet kit and Opti MEM reduced growth medium using a ratio of 1:9 respectively. The next day, endothelial cells were incubated with Scr X or Hb α X peptide for 20 minutes followed by the addition of 10 μM bradykinin (Sigma) for 5 minutes followed by medium collection for nitrite measurements as described below.
Quantitation of nitrite in culture medium was measured by chemiluminescence using a Sievers nitric oxide analyzer according to manufacturer's instructions. Quantitation of peaks was analyzed using Origin Pro 6.0 as previously described^9.

[4] = tested on: eNOS phosphorylation on serine 1177; test: Western blot of pS1177 eNOS in coronary endothelial cells; format: cell-based, human; details: 5 μmol/L peptide, 20 minutes
Protocol: as §3
Endothelial cells were harvested in lysis buffer, sonicated and subjected to electrophoresis using 10% Bis-Tris gels (Invitrogen) as previously described^13. Proteins were transferred to nitrocellulose, incubated with phospho-eNOS S1177 (BD Biosciences) or total eNOS (Sigma) and visualized and quantitated using Li-Cor Odyssey Imager as previously described^14.

thoracodorsal arteries = test: Pressure myography on thoracodorsal arteries, phenylephrine dose response with peptides; design: species or system mouse

Row | Compound | NO diffusion in the VCCC [1] | NO diffusion across the vessel wall (TD arteries) | Contraction to 5-HT 50 nM post 15 min, % initial diameter ([2]; TD arteries) [n.s. % initial diameter] | PE CCRC Emax (% initial diameter) [2] [% initial diameter] | also measured
1 | [C-]#[O+] [carbon monoxide] | increase in NO diffusion | increased NO diffusion |  |  | 
2 | COC(=O)[C@@H](N)CCCNC(=N)N[N+](=O)[O-] [L-NAME, L-N^G-nitroarginine methyl ester] |  |  | 57.0 ± 3.29 | 62.6 ± 6.1 | 
3 | Scrambled control peptide FPYFSTKLTT (SEQ ID NO:40) with HIV-tat tag YGRKKRRQRRR at the N-terminus [Scr X] |  |  |  |  | Accumulation of nitrite in the culture medium, basal [3]: no differences; Basal eNOS phosphorylation on serine 1177 [4]: no differences; Constriction in phenylephrine dose response curves (thoracodorsal arteries; compared to untreated arteries): no difference from control; Emax, vascular reactivity dose response curves (thoracodorsal arteries; phenylephrine dose response, thoracodorsal arteries perfused with peptide): 38.3 ± 2.4 % initial diameter
4 | CCCc1cc(=O)[nH]c(=S)[nH]1 [PTU, propylthiouracil] | increased NO diffusion | increased NO diffusion | 64.1 ± 4.5 | 91.4 ± 2.5 | Reversibility of the PTU effect with L-thyroxine supplementation ([2]; L-thyroxin 50 μM + PTU, 10 μM PE stimulation): not reversible; Basal tone ([2]; TD arteries): No difference in basal tone; Ach CCRC Emax (% Dilation) ([2]; acetylcholine, TD arteries pretreated with PTU): 94.9 ± 1.7 % Dilation; PE and Ach responses with the addition of L-NAME ([2]; plus NOS inhibitor L-NAME, TD arteries): comparable to control conditions
